In assay [1] the target is T1, rat CYP17 (rat testicular microsomes) (Rattus norvegicus, UniProt P11715).
T1 construct: Rat testis tissue was collected and disrupted with 30 strokes of a glass homogenizer; from tissue; host or cells: rat testis (microsomes)
T1 sequence (P11715 1-507): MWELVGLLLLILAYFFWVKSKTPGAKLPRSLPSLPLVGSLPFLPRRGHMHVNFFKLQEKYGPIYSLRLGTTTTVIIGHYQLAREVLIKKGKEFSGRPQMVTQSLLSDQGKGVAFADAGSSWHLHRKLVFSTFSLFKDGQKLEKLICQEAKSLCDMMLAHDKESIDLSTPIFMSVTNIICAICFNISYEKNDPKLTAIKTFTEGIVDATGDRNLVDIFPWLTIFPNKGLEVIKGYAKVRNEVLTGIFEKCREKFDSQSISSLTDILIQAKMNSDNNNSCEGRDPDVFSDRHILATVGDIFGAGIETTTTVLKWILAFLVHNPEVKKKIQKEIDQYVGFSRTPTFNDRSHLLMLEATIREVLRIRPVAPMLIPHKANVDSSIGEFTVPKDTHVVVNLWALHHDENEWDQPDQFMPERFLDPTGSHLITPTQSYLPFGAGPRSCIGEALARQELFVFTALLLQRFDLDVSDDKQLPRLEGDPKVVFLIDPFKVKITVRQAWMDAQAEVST
Put plainly: CYP17 inhibition assay in rat testicular microsomes. It counts as biochemical. As to the method: CYP17 Inhibition Assay in Rat Testicular Microsomes (Rat CYP17) or Yeast Microsome Overexpressing Human CYP17
1. NADPH (Sigma): A working stock was prepared by adding 25 μL of 6.5 mM NADPH in each tube. The final concentration of NADPH used in the assay was 325 μM.
2. Potassium Phosphate Buffer: One molar (1M) solutions of K2HPO4 and KH2PO4 were prepared. Eight mL of the 1 M KH2PO4 and 1.98 mL of the 1 M K2HPO4 were combined and the pH was adjusted to 7.4.
3. ^3H3-17α-hydroxypregnenolone (American Radiolabeled Chemicals, Inc., stock 1 μCi/μL): A 1:1 dilution of ^3H3-17α-hydroxypregnenolone in ethanol was prepared by combining 100 μL ^3H3-17α-hydroxypregnenolone+100 μL ethanol for one complete 96 well plate. For the reaction, 2 μL of the diluted ^3H3-17α-hydroxypregnenolone was added in each tube, i.e., 1 μCi/reaction. 4. Microsome Isolation Buffer: The microsome isolation buffer was prepared by combining 250 mM Sucrose, 5 mM EDTA, 10 mM Tris HCl, 4 mM DTT, and adjusting to pH 7.4. 5. TEG Buffer: The TEG buffer was prepared by combining 50 mM Tris HCl, 1 mM EDTA, and 20% Glycerol. 6. Rat Testicular Microsomes: Rat testis tissue was collected and disrupted with 30 strokes of a glass homogenizer on ice with 250 μL of microsome isolation buffer, followed by centrifugation at 10,000 g for 10 minutes at 4° C. The supernatant was collected and centrifuged at 100,000 g for 45 minutes at 4° C. The pellet was dissolved in TEG Buffer and the protein was quantified. The homogenized microsome samples were then frozen at −80° C. • 7. Yeast Microsomes which overexpress the human CYP17 enzyme were obtained from Premas Biotech, India.
Potassium phosphate buffer (470 μL) was prepared as described above and was added to each well of a deep well plate. The test compound was diluted using a TECAN liquid handler and 5 μL of diluted compound was transferred to each well (96 deep well/1 mL). A solution (25 μL) of 6.5 mM NADPH was added (final concentration of 325 μM in the assay). ^3H3-17α-hydroxypregnenolone (2 μL of the working stock) was added to each tube. The plates were then pre-incubated for 15 minutes at 37° C. Following the pre-incubation, either 5 μL rat testicular microsomes (150-160 μg) or 5 μL of yeast microsomes expressing human CYP17 (1.7 pmol), was added. Incubation was at 37° C. for 60 minutes in the presence of oxygen. The plates were then placed in ice and chloroform (500 μL) was added, mixed well and incubated at 4° C. for 20 minutes. The plates were then centrifuged at 1000 rpm for 15 minutes at 4° C.
A portion (300 μL) of the aqueous solution was collected and mixed with a 5% aqueous suspension of activated charcoal (300 μL). The plates were then incubated at 4° C. for 30 minutes, after which the plates were centrifuged at 1000 rpm for 15 minutes at 4° C. From this, 125 μL of the aqueous solution was collected and plated into a 96 well plate. Microscint™ 40 [125 μL, Perkin-Elmer; containing a mixture of a polymer based on alkylphenolethoxylate (20-40%), diethanolamine-phosphoric acid ester ammonium salt (10-20%), sodium dioctyl sulphosuccinate (2.5-10%), triethyl phosphate (2.5-10%), 3,6-dimethyl-4-octyne-3,6-diol (≦2.5%), a polymer based on nonylphenolethoxylate (≦2.5%), diisopropyl naphthalene isomers (40-60%), 2,5-diphenyloxazole (≦2.5%), and 9,10-dimethylanthracene] was added and mixed well. After 30 minutes of incubation, the samples were analyzed with a MicroBeta® Trilux microplate liquid scintillation counter and luminometer (Perkin-Elmer).

Assay [2] has as its target T2, human CYP17 in H295R adrenocortical carcinoma cells (Homo sapiens, UniProt P05093).
T2 construct: H295R Adrenocortical carcinoma cells [NCI-H295A, ATCC Number CRL-2128, American Type Culture Collection; host or cells: H295R adrenocortical carcinoma cells
T2 sequence (P05093 1-508): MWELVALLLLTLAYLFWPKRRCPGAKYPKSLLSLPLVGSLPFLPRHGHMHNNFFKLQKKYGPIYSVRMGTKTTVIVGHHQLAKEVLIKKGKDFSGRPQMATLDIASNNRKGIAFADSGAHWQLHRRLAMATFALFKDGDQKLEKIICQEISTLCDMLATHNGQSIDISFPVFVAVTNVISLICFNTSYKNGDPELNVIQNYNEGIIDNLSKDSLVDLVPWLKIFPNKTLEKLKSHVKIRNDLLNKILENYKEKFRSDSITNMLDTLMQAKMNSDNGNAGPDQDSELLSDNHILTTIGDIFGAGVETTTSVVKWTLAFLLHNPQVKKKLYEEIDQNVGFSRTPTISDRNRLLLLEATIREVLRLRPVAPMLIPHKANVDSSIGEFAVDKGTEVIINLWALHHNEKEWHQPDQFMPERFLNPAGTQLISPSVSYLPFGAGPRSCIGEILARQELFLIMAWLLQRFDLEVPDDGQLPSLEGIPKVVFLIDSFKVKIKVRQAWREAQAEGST
Put plainly: Cell-based human CYP17 inhibition assay, H295R cells. The settings on record: 16 hours, read-out: CYP17 (human H295R adrenal cells). As to the method:
Cell-Based Human CYP17 Inhibition Assay
1. H295R Adrenocortical Carcinoma Cells and Growth Media: The media for the H295R Adrenocortical carcinoma cells [NCI-H295A, ATCC Number CRL-2128, American Type Culture Collection, Manassas, Va., US] (500 mL) was a DMEM:F12 Mix 1:1 with 5% (2 mL) BD Nu Serum; 1% (5 mL) ITS+Premix [BD Biosciences] and 1% Penstrep. 2. LNCap-CYP17 Cells and Growth Media: Full length hCYP17a1 gene (NCBI Reference Sequence: NM_000102.3) was cloned in pcDNA3.1(+) vector between HindIII and XhoI site. The pcDNA3.1(+) vector contains the Neomycin resistance gene and was used for selection of stable cell line. The hCYP17a1 containing pcDNA3.1(+) was transfected into LNCap cells to create the LNCap-CYP17 cell line. The media for the LNCaP-CYP17 cells was RPMI 1640, 10% FBS, 1% PenStrep, Geneticin 400 μg/mL.
The H295R cells or LNCaP-hCYP17 cells were subcultured and 30,000 cells per well were seeded in a poly-d lysine plate and incubated overnight at 37° C. The next day the media was removed and 200 μL of fresh media with ^3H3-17α-hydroxy-pregnenolone (1:1000) was added. 50 μL of serially diluted compounds from a 5× plate (5 times the final desired concentration) was added. The working concentration range for active, new compounds started from a high concentration of 10 μM with 3-fold serial dilutions generating up to 10 concentrations. The serial dilution in the 100× plate (in DMSO) and the stamping of a 5× plate (in media) from the 100× plate were carried out using a TECAN liquid handling device.
The plates were incubated overnight (16 hours) at 37° C. After 16 hours, the media was removed (approximately 220 μL) and an equal amount of chloroform was added, mixed and incubated for 30 minutes at 4 degrees. The plate was centrifuged at 4000 rpm for 15 minutes at 4° C., following which the top aqueous layer was carefully removed and added into a new deep well plate. An equal volume of activated 5% charcoal was added, mixed and incubated for 30 minutes at 4° C. The plate was then centrifuged at 4000 rpm for 15 minutes at 4° C. and the top layer carefully separated, avoiding any charcoal contamination, and placed in a white, clear bottom plate (plate cat #3610, Corning Life Sciences). An equal volume of Microscint™ 40 was added and mixed well. Following the incubation for 30 minutes, readings for the radiotracer were taken using a Microbeta® trilux.

Some results are limits rather than exact numbers.

In the case of `CC(O)(c1ccncc1)c1cnc(-c2ccc(F)c(Cl)c2)s1` (centres unmarked) [Example 46, 1-(2-(3-chloro-4-fluorophenyl)thiazol-5-yl)-1-(pyridin-4-yl)ethanol], the IC50 in assay [1] and in assay [2] was < 0.05 µM throughout.
`CC(C)CC(O)(c1ccncc1)c1cnc(-c2ccc(F)cc2)s1` (centres unmarked) [Example 47, 1-(2-(4-fluorophenyl)thiazol-5-yl)-3-methyl-1-(pyridin-4-yl)butan-1-ol]: the IC50 in assay [1] and in assay [2] was < 0.05 µM in each case.
Regarding `CC(O)(c1ccncc1)c1ccc(-c2ccc(F)cc2)cn1` (centres unmarked) [Example 5, 1-(5-(4-fluorophenyl)-pyridin-2-yl)-1-(pyridin-4-yl)ethanol], the results for the IC50 in assay [1] and in assay [2] were < 0.05 µM and 0.201 to 10 µM, respectively.
The like results for `CC(O)(c1ccncc1)c1cc(-c2ccc(F)cc2)no1` (centres unmarked) [Example 32, 1-[3-(4-Fluoro-phenyl)-isoxazol-5-yl]-1-pyridin-4-yl-ethanol] were, in that order, < 0.05 µM and 0.05 to 0.2 µM.
For `CCC(O)(c1ccncc1)c1cnc(-c2cn[nH]c2)s1` (centres unmarked) [Example 18, 1-(2-(1H-Pyrazol-4-yl)thiazol-5-yl)-1-(pyridin-4-yl)propan-1-ol], in that order: < 0.05 µM and < 0.05 µM.
For `CCC(O)(c1ccncc1)c1nnc(-c2ccc(F)cc2)s1` (centres unmarked) [Example 21, 1-(5-(4-fluorophenyl)-1,3,4-thiadiazol-2-yl)-1-(pyridin-4-yl)propan-1-ol], the IC50 in assay [1] was < 0.05 µM; in assay [2], 0.201 to 10 µM.
The like results for `CC(O)(c1ccncc1)c1cnc(-c2cncnc2)s1` (centres unmarked) [Example 64, 1-(pyridin-4-yl)-1-(2-(pyrimidin-5-yl)thiazol-5-yl)ethanol] were, in that order, < 0.05 µM and 0.201 to 10 µM.
As for `CCC(O)(c1ccncc1)c1ncc(-c2cn[nH]c2)o1` (centres unmarked) [Example 57, 1-(5-(1H-pyrazol-4-yl)oxazol-2-yl)-1-(pyridin-4-yl)propan-1-ol], the IC50 is 0.05 to 0.2 µM in assay [1] and 0.201 to 10 µM in assay [2].
For `CCCCC(=O)c1ccc(-c2ccc(C(C)(O)c3ccncc3)nc2)cn1` (centres unmarked) [Example 62, 1-(6′-(1-hydroxy-1-(pyridin-4-yl)ethyl)-[3,3′-bipyridin]-6-yl)pentan-1-one], in that order: 0.05 to 0.2 µM and 0.201 to 10 µM.
For the compound `CC(O)(c1ccncc1)c1nc(-c2ccc(F)cc2)no1` (single isomer, unassigned; (-)) [Example 35, (−)-1-(3-(4-fluorophenyl)-1,2,4-oxadiazol-5-yl)-1-(pyridin-4-yl)ethanol], the figures for the IC50 in assay [1] and in assay [2] were < 0.05 µM and 0.201 to 10 µM, respectively.
For the compound `CC(O)(c1ccncc1)c1cnc(-c2ccc(Cl)cc2)s1` (centres unmarked) [Example 28, 1-(2-(4-Chlorophenyl)thiazol-5-yl)-1-(pyridin-4-yl)ethanol], the IC50 in assay [1] and in assay [2] was < 0.05 µM in each case.
For `CC(O)(c1ccncc1)c1cnc(-c2ccccc2)s1` (centres unmarked) [Example 51, 1-(2-phenylthiazol-5-yl)-1-(pyridin-4-yl)ethanol], the IC50 in assay [1] and in assay [2] was < 0.05 µM in each case.
`CC(O)(c1ccncc1)c1cnc(-c2ccc(F)cc2)o1` (centres unmarked) [Example 23, 1-(2-(4-Fluorophenyl)oxazol-5-yl)-1-(pyridin-4-yl)ethanol]: the IC50 was < 0.05 µM in assay [1] and 0.201 to 10 µM in assay [2].
For `CC(O)(c1ccncc1)c1ccc(-c2ccc(C#N)nc2)cn1` (centres unmarked) [Example 12, 6′-(1-Hydroxy-1-(pyridin-4-yl)ethyl)-[3,3′-bipyridine]-6-carbonitrile], in that order: < 0.05 µM and 0.05 to 0.2 µM.
The like results for `CC(O)(c1ccncc1)c1nc(-c2ccc(F)cc2)ns1` (centres unmarked) [Example 52, 1-(3-(4-fluorophenyl)-1,2,4-thiadiazol-5-yl)-1-(pyridin-4-yl)ethanol] were, in that order, < 0.05 µM and < 0.05 µM.
For `Cn1cc(-c2ccc(C(C)(O)c3ccncc3)o2)ccc1=O` (centres unmarked) [Example 58, 5-(5-(1-hydroxy-1-(pyridin-4-yl)ethyl)furan-2-yl)-1-methylpyridin-2(1H)-one], in that order: 0.05 to 0.2 µM and 0.201 to 10 µM.

(Values after patent US8809372B2, “Pyridine derivatives” (Endo Pharmaceuticals, Inc., priority 2011, dated 2014).)
